Measurements as given in paper PMC5142622, “Attenuation of the Type IV Pilus Retraction Motor Influences Neisseria gonorrhoeae Social and Infection Behavior” (mBio, 2016).

Biological target: PilT (Neisseria gonorrhoeae, UniProt Q53432)
Settings: MgCl2 5 mM, Tris 150 mM pH 8.5, NaCl 150 mM, 37 °C; variable ATP, 10 min

Sequence of PilT (Q53432 entry or part of it): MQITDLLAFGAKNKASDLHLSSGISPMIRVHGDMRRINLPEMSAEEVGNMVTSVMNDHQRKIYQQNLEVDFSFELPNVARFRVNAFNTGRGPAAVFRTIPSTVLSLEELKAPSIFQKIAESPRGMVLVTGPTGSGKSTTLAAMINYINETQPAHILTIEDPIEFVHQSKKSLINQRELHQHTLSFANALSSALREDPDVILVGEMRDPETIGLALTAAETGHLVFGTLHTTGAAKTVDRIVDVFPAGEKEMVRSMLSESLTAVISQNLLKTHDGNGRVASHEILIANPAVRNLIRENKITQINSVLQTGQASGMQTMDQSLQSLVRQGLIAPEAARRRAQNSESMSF

Structure (SMILES): Nc1ncnc2c1ncn2[C@@H]1O[C@H](COP(=O)(O)OP(=O)(O)OP(=O)(O)O)[C@@H](O)[C@H]1O [ATP]
- Km: 0.38 nmol
